What was measured:
PANC-1 cells [1] = test: RTCA cell migration assay; assay type: cell-based; settings: KLK7 silenced PANC-1 cells, compared to BC and NC groups
Procedure: (§1) Cell migration assay was performed on RTCA xCELLigence DP (ACEA Biosciences). […] Migration was measured as the relative cell index change measured by the microelectronic sensors integrated into the bottom side of the membrane. Measurements were recorded every 15 min for 36 h.
(§2) The tested compound was added into the cell culture medium 3 h after PANC-1 cells were seeded. The cell prolifiation, migration and matrigel invasion was then assayed on RTCA.

KLK7 = KLK7 expression in lentivirus-infected PANC-1 cells (real-time PCR and western blotting); assay type: cell-based, human; settings: PANC-1 cells stably infected, compared to NC group
Text: A scrambled shRNA sequence was used as the negative control (LV-NC-shRNA, 5′-[…]-3′). The shRNA sequences were synthesized and cloned into recombinant shRNA expression vectors (pGLV3-H1-GFP-Puro). The resulted plasmids were verified by DNA sequencing.
PANC-1 and HepG2 cell lines were obtained from the Chinese Type Culture Collection Center (Wuhan, China). PANC-1 cells were maintained in dulbecco’s modified Eagle medium supplemented with 10% fetal bovine serum, 100 units/ml penicillin G sodium, and 100 μg/ml streptomycin sulphate. HepG2 cells were maintained in RPMI 1640 medium supplemented with 10% fetal bovine serum, 100 units/ml penicillin G sodium, and 100 μg/ml streptomycin sulphate. PANC-1 and HepG2 cells pro-treated by 5 μg/ml polybrene were infected with the lentivirus and stably infected cells were selected in cell culture medium containing 4 μg/ml puromycin (Sigma-Aldrich). […]
Western blotting assay was performed with cell lysates collected from stably transfected cells. Total protein concentrations were measured with the bicinchoninic assay (BCA). The sample proteins (20μg for each lane) were analyzed first in 12% SDS-PAGE and then transferred onto polyvinylidine difuorides membranes. […] The chemiluminescent data were collected and grayscale values were evaluated with Image J.

PANC-1 cells [2] = test: RTCA matrigel invasion assay; assay type: cell-based; settings: KLK7 silenced PANC-1 cells, compared to BC and NC groups
Procedure: (§3) Cell matrigel invasion assay was similar to the cell migration assay, except that the microporous membrane between the upper and lower chambers was coated by a thin layer of matrigel (BD Biosciences). After 36 h, cells on the bottom side were fixed in cold methanol, stained with 0.4% crystal violet, and photographed (5 random fields for each sample).
as §2

HepG2 cells = test: RTCA proliferation, migration and invasion of KLK7 silenced HepG2 cells; assay type: cell-based
Procedure: as §1, §3

5′-GCACUGAGUUAAUUAACUGUGUUUCAAGAGAACACAGUUAAUUAACUCAGUGCUU-3′ (expressed or natural sequence) [LV-hKLK7-shRNA-4, PANC-1 cells infected with it are named KD4]
Decrease of migration rate (PANC-1 cells [1]): about 85%
Decrease of KLK7 expression (KLK7): around 90%
Invasion capacity (PANC-1 cells [2]): almost fully inhibited
Effect on invasion of HepG2 cells (HepG2 cells): did not affect
Effect on migration of HepG2 cells (HepG2 cells): did not affect

— PMC5849182, “Kallikrein-related peptidase 7 is a potential target for the treatment of pancreatic cancer” (Oncotarget, 2018)
